# The supplement of paper PMC6045584
# ± gives the standard deviation of the averaged measurements.
# Assays:
# LAPATINIB = compound: CS(=O)(=O)CCNCc1ccc(-c2ccc3ncnc(Nc4ccc(OCc5cccc(F)c5)c(Cl)c4)c3c2)o1 [LAPATINIB]; assay: surviving fraction relative to DMSO-only wells; higher = less growth inhibition; settings: exposure time: 5 days
# Outline: (§1)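 Log-phase tumour cell lines, 250–500 cells per well in 384-well plates, received inhibitors at 0.5, 1, 5, 10, 50, 100, 500 and 1000 nM continuously for five days, starting 24 hours after seeding. Viability was quantified with CellTiter-Glo luminescence and normalised to the median of DMSO-only wells to give surviving fraction. Three screens were run per line, and a line stayed in only with replicate Pearson r >0.7 and median Z' >0.3.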
# DECITABINE = compound: Nc1ncn([C@H]2C[C@H](O)[C@@H](CO)O2)c(=O)n1 [DECITABINE]; assay: as above; settings: exposure time: 5 days
# Outline: as §1
Test System,surviving fraction (LAPATINIB; 0.5 nM),surviving fraction (LAPATINIB; 1 nM),surviving fraction (LAPATINIB; 5 nM),surviving fraction (LAPATINIB; 10 nM),surviving fraction (LAPATINIB; 50 nM),surviving fraction (LAPATINIB; 100 nM),surviving fraction (LAPATINIB; 500 nM),surviving fraction (LAPATINIB; 1000 nM),surviving fraction (DECITABINE; 0.5 nM),surviving fraction (DECITABINE; 1 nM),surviving fraction (DECITABINE; 5 nM),surviving fraction (DECITABINE; 10 nM),surviving fraction (DECITABINE; 50 nM),surviving fraction (DECITABINE; 100 nM),surviving fraction (DECITABINE; 500 nM),surviving fraction (DECITABINE; 1000 nM)
MDAMB436 BREAST,0.893 ± 0.14,0.996 ± 0.13,0.834 ± 0.091,0.896 ± 0.03,1.02 ± 0.072,1.03 ± 0.12,1.05 ± 0.23,1.04 ± 0.083,1.11 ± 0.084,1.06 ± 0.079,1 ± 0.12,0.949 ± 0.09,0.927 ± 0.11,0.823 ± 0.064,0.796 ± 0.048,0.685 ± 0.032
MDAMB453 BREAST,1.06 ± 0.024,1.04 ± 0.061,1.09 ± 0.099,1.11 ± 0.12,0.993 ± 0.026,1.04 ± 0.018,0.868 ± 0.043,0.752 ± 0.024,1.04 ± 0.053,1.04 ± 0.032,1.05 ± 0.093,1.07 ± 0.062,1.05 ± 0.061,1.02 ± 0.059,0.88 ± 0.015,0.757 ± 0.053
MDAMB468 BREAST,1.07 ± 0.019,1.01 ± 0.042,1.13 ± 0.054,1.09 ± 0.08,1.086 ± 0.01,1.1 ± 0.051,0.948 ± 0.043,0.785 ± 0.058,1.09 ± 0.083,1.08 ± 0.062,1.08 ± 0.098,1.03 ± 0.068,0.836 ± 0.04,0.658 ± 0.046,0.391 ± 0.02,0.341 ± 0.043
MFM223 BREAST,1.18 ± 0.13,1.18 ± 0.14,1.15 ± 0.027,1.13 ± 0.081,1.058 ± 0.01,1.2 ± 0.034,1.02 ± 0.084,–,1.5 ± 0.59,1.51 ± 0.5,1.45 ± 0.48,1.47 ± 0.53,1.05 ± 0.061,1.05 ± 0.1,0.993 ± 0.095,0.799 ± 0.02
MG63 BONE,0.98 ± 0.029,1.04 ± 0.027,1.06 ± 0.035,1.07 ± 0.035,1.04 ± 0.039,1.08 ± 0.023,1.09 ± 0.017,1.11 ± 0.038,0.968 ± 0.02,0.9493 ± 0.0021,0.704 ± 0.009,0.641 ± 0.0093,0.432 ± 0.017,0.356 ± 0.008,0.302 ± 0.016,0.291 ± 0.011
MHM BONE,0.9907 ± 0.0093,1 ± 0.015,1.05 ± 0.014,1.07 ± 0.037,1.02 ± 0.027,1.02 ± 0.014,0.992 ± 0.033,1.01 ± 0.024,1 ± 0.029,1 ± 0.07,1.02 ± 0.04,1.02 ± 0.062,1.05 ± 0.044,1.02 ± 0.023,1.08 ± 0.042,1.04 ± 0.038
NCIH441 LUNG,1.06 ± 0.071,1.07 ± 0.12,1.08 ± 0.059,1.17 ± 0.067,1.03 ± 0.053,1.09 ± 0.043,1 ± 0.061,1.18 ± 0.054,1.11 ± 0.025,1.11 ± 0.058,1.03 ± 0.074,0.935 ± 0.039,0.71 ± 0.057,0.591 ± 0.12,0.494 ± 0.047,0.405 ± 0.056
NOS1 BONE,1.16 ± 0.16,1.05 ± 0.12,1.11 ± 0.069,1.12 ± 0.033,1.13 ± 0.068,1.08 ± 0.13,1.03 ± 0.093,0.898 ± 0.029,1.07 ± 0.099,0.872 ± 0.046,1.28 ± 0.055,0.989 ± 0.08,1.09 ± 0.043,0.992 ± 0.074,0.977 ± 0.22,0.816 ± 0.031
NY BONE,1.02 ± 0.025,1.03 ± 0.042,1.05 ± 0.025,1.1 ± 0.05,1 ± 0.028,1.1 ± 0.046,0.9837 ± 0.0064,1.04 ± 0.027,0.9793 ± 0.0075,0.955 ± 0.016,1 ± 0.028,0.939 ± 0.018,0.921 ± 0.021,0.843 ± 0.054,0.649 ± 0.036,0.479 ± 0.042
OS25HAL BONE,1.01 ± 0.018,1.06 ± 0.018,1.06 ± 0.066,1 ± 0.024,1.05 ± 0.029,1.04 ± 0.0055,1.09 ± 0.044,1.1 ± 0.053,1.01 ± 0.024,0.9963 ± 0.0074,1.08 ± 0.033,1.07 ± 0.011,1.19 ± 0.034,1.22 ± 0.034,1.047 ± 0.01,0.921 ± 0.055
OSHN BONE,1.03 ± 0.026,1.098 ± 0.0061,1.09 ± 0.025,1.1 ± 0.011,1.05 ± 0.02,1.08 ± 0.015,1.067 ± 0.0071,1.1 ± 0.015,1.08 ± 0.015,1.06 ± 0.028,1.11 ± 0.024,1.07 ± 0.032,1.17 ± 0.03,1.17 ± 0.017,1.22 ± 0.022,1.112 ± 0.0035
PCI30 HEADNECK,1.06 ± 0.033,1.05 ± 0.06,1.05 ± 0.052,1.06 ± 0.084,1.14 ± 0.063,1.18 ± 0.062,1.01 ± 0.069,0.989 ± 0.071,1.04 ± 0.03,1.03 ± 0.052,0.987 ± 0.053,1.06 ± 0.034,0.963 ± 0.065,0.96 ± 0.079,0.843 ± 0.056,1.08 ± 0.075
RDES SOFT TISSUE,–,1.21 ± 0.12,1.14 ± 0.11,1.13 ± 0.13,1.09 ± 0.053,1.19 ± 0.11,1.41 ± 0.18,1.55 ± 0.19,1.24 ± 0.016,1.14 ± 0.033,1.18 ± 0.15,0.972 ± 0.05,1.13 ± 0.13,1.29 ± 0.16,1.11 ± 0.16,1.41 ± 0.28
S68 BREAST,1.12 ± 0.24,1.01 ± 0.2,1.17 ± 0.11,1.26 ± 0.22,1.07 ± 0.08,1.1 ± 0.33,0.71 ± 0.058,0.769 ± 0.032,0.828 ± 0.28,0.903 ± 0.17,1.15 ± 0.28,1.13 ± 0.24,0.697 ± 0.21,0.926 ± 0.2,0.541 ± 0.13,0.445 ± 0.013
SAOS2 BONE,1.14 ± 0.027,1.19 ± 0.066,1.24 ± 0.038,1.24 ± 0.049,1.18 ± 0.065,1.24 ± 0.099,1.21 ± 0.11,1.15 ± 0.22,1.09 ± 0.027,1.11 ± 0.037,1.1 ± 0.027,1.02 ± 0.042,1.01 ± 0.051,0.88 ± 0.07,0.742 ± 0.057,0.581 ± 0.12
SCC003 HEADNECK,1.08 ± 0.05,1.13 ± 0.054,1.06 ± 0.067,1.11 ± 0.079,0.963 ± 0.011,0.964 ± 0.054,0.757 ± 0.015,0.64 ± 0.069,1.03 ± 0.038,1.03 ± 0.032,1.06 ± 0.067,1.03 ± 0.055,0.922 ± 0.047,0.788 ± 0.032,0.718 ± 0.032,0.635 ± 0.065
SCC36 HEADNECK,1.03 ± 0.067,1.1 ± 0.089,1.08 ± 0.062,1.11 ± 0.051,0.918 ± 0.049,0.883 ± 0.067,0.543 ± 0.051,0.394 ± 0.043,1.01 ± 0.05,1.01 ± 0.054,1.05 ± 0.15,1.05 ± 0.09,1.04 ± 0.089,0.934 ± 0.067,0.709 ± 0.054,0.648 ± 0.074
SCC47 HEADNECK,1.09 ± 0.1,1.1 ± 0.016,1.09 ± 0.011,1.18 ± 0.033,1.05 ± 0.044,1.05 ± 0.072,0.82 ± 0.041,0.705 ± 0.053,1.07 ± 0.084,1.08 ± 0.13,1.08 ± 0.012,1.09 ± 0.067,1.03 ± 0.058,1.03 ± 0.03,0.973 ± 0.028,0.863 ± 0.1
SCC90 HEADNECK,1.02 ± 0.038,1.01 ± 0.1,1.01 ± 0.087,0.971 ± 0.04,0.845 ± 0.037,0.802 ± 0.067,0.532 ± 0.015,0.508 ± 0.023,0.985 ± 0.073,0.995 ± 0.065,1.11 ± 0.075,1.03 ± 0.072,1.13 ± 0.074,1.11 ± 0.018,1.3 ± 0.25,1.05 ± 0.17
